# Data: patent publication US20260209247A1, “Substituted Tricyclic Compounds” (Lupin Limited, priority 2019, published 2026)
# Experiments:
# [1] = system: MIA PaCa-2 human pancreatic cancer xenograft; assay: MIA PaCa-2 xenograft efficacy study; format: in vivo; conditions: b.i.d., p.o., nude mice
# Protocol: In vivo efficacy of compounds 68, 101b at a dose of 30 mg/kg, b.i.d., p.o. and compound 81 at a dose of 50 mg/kg, b.i.d., p.o., was evaluated in MIA PaCa-2 human pancreatic cancer xenograft model in nude mice.
# MIA PaCa-2 tumor fragments were implanted subcutaneously in the right flank region of nude mice. Tumor-bearing mice were randomized once the tumors reached an average volume of ~141-142 mm^3 (tumor volume range 72-242 mm^3).
# To assess the efficacy of compound 81, the tumor-bearing mice were randomized once the tumors reached an average volume of ~181-183 mm^3 (tumor volume range 73-251 mm^3). The mice were divided into the following groups (n=8/group): Vehicle control and compound 81 (50 mg/kg, b.i d., p.o.).
# [2] = target: T1, nucleotide exchange on hKRASG12C mediated by hSOS1 (Homo sapiens, UniProt Q07889); assay: Guanine nucleotide exchange assay (GNEA, HTRF); format: biochemical; conditions: HIS-hSOS1 564-1049aa mediated GTP loading onto GST-hKRASG12C 1-169aa, read-out: Guanine nucleotide exchange inhibition IC50
# T1 construct: HIS-hSOS1, 564-1049aa mediated GTP loading onto GST-hKRASG12C; His (N); made in house
# T1 sequence (Q07889 564-1049): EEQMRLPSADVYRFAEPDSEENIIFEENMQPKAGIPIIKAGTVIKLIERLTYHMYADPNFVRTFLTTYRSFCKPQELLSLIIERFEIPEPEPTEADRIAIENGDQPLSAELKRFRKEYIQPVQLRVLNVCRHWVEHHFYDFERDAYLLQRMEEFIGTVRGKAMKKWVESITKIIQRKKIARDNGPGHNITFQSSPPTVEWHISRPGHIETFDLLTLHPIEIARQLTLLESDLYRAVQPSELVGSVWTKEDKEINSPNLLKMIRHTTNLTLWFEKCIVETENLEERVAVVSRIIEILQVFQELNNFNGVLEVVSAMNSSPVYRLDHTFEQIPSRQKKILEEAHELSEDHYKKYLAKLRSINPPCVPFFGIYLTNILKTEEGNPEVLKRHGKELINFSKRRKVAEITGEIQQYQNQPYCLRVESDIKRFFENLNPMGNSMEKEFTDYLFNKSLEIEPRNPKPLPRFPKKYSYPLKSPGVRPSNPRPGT
# In short: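 Compounds were pre-incubated 10 min at 20 °C with HIS-hSOS1 (564-1049aa) and EDA-GTP-DY-647P1 (working solution 10-50 nM and 200 nM) in pH 7.4 HEPES with NaCl, MgCl2, DTT, BSA and Igepal. GST-hKRASG12C (1-169aa, 25-125 nM working solution) plus anti-GST-Tb was added for 30-60 min at 20 °C. Percent inhibition came from the HTRF 665/620 nm ratio.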
# [3] = system: pERK after EGF stimulation in DLD1 cells; assay: ERK phosphorylation assay (alphascreen pERK); format: cell-based; conditions: Homo sapiens, DLD-1, 2 h compound, 200 ng/ml hEGF for 5 minutes, read-out: ERK phosphorylation inhibition IC50
# In short: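 DLD1 cells pretreated with test compounds for 2 h, then stimulated with 200 ng/ml hEGF for 5 min. Lysates assayed by AlphaScreen SureFire for ERK1/2 p-T202/Y204, read after 2 h at 25–28 °C. % inhibition relative to the stimulated-minus-unstimulated vehicle window.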
# [4] = target: T2, protein-protein interaction between hSOS1 and hKRASG12C (Homo sapiens, UniProt Q07889); assay: KRAS-SOS1 interaction assay (HTRF); format: binding; conditions: GST-hSOS1 564-1049aa, HIS-hKRASG12C, read-out: KRAS-SOS1 Interaction inhibition IC50
# T2 construct: GST-hSOS1, 564-1049aa expressed and purified in-house
# T2 sequence (Q07889 564-1049): T1 sequence (Q07889 564-1049)
# In short: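 GST-hSOS1 (564-1049aa) at 10-50 nM working solution pre-incubated with compounds 10 min at 20° C in HEPES pH 7.4 buffer with EDTA, DTT, BSA and Igepal. HIS-hKRASG12C (100-300 nM working solution) added for 30-60 min, then anti-GST-d2/anti-HIS-Tb detection; percent inhibition from the 665/620 nm ratio.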
smiles,measurement,setting,value
"COC1(C)C(=O)N(C)c2cc3c(N[C@H](C)c4cccc(C(F)(F)C(C)(C)O)c4F)nc(C)nc3cc21 (single isomer, unassigned) [Compound 101b]",tumor growth inhibition,[1]; 30 mg/kg,65.71%
same,IC50,[2],1 to 30 nM
same,IC50,[3],1 to 200 nM
same,IC50,[4],1 to 10 nM
"Cc1nc(N[C@H](C)c2cccc(C(F)(F)C(C)(C)O)c2F)c2cc3c(cc2n1)C(C)(C)C(=O)N3C [Compound 68, (R)-4-((1-(3-(1,1-Difluoro-2-hydroxy-2-methylpropyl)-2-fluorophenyl)ethyl)amino)-2,6,8,8-tetramethyl-6,8-dihydro-7H-pyrrolo[2,3-g]quinazolin-7-one]",tumor growth inhibition,[1]; 30 mg/kg,63.82%
same,IC50,[2],1 to 30 nM
same,IC50,[3],1 to 200 nM
same,IC50,[4],1 to 10 nM
"Cc1nc(N[C@H](C)c2cccc(C(F)(F)C(C)(C)O)c2F)c2cc3c(cc2n1)N(C)C(=O)C3(C)C [Compound 81, (R)-4-((1-(3-(1,1-difluoro-2-hydroxy-2-methylpropyl)-2-fluorophenyl)ethyl)amino)-2,6,6,8-tetramethyl-6,8-dihydro-7H-pyrrolo[3,2-g]quinazolin-7-one]",tumor growth inhibition,[1]; 50 mg/kg,67.68%
same,IC50,[2],1 to 30 nM
same,IC50,[3],1 to 200 nM
same,IC50,[4],1 to 10 nM
